Source: ChEMBL document CHEMBL1141518, “Novel non-peptidic and small-sized BACE1 inhibitors” (Bioorg Med Chem Lett, 2008)
Active and inactive are the calls of the source. No cut-off for these calls is given here.

Assays:
Beta-secretase 1 [1] = molecular target: T1, Beta-secretase 1 (Homo sapiens, UniProt P56817); test: Inhibition of human recombinant BACE1 at 2 uM by FRET assay
Beta-secretase 1 [2] = molecular target: T1, Beta-secretase 1
Description: (§1) Inhibition of human recombinant BACE1 by FRET assay

Beta-secretase 1 [3] = molecular target: T1, Beta-secretase 1; remark: listed apart in the source
Description: as §1

Beta-secretase 1 [4] = molecular target: T1, Beta-secretase 1; test: Inhibition of human recombinant BACE1 at 0.2 uM by FRET assay

T1 sequence (P56817 whole entry): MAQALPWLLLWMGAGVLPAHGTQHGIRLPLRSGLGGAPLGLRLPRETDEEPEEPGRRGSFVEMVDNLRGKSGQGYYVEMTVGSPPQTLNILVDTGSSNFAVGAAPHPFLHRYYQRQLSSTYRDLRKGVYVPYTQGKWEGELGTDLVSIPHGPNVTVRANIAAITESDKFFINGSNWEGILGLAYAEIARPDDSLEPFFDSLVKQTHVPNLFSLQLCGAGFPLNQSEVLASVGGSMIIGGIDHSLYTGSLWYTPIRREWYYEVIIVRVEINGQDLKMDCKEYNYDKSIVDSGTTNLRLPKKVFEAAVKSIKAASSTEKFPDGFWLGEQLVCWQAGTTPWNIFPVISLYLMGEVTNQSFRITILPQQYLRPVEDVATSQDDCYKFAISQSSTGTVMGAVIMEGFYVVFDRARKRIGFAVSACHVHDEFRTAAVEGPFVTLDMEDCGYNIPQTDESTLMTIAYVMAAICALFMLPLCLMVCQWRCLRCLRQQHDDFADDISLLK

Compound | inhibition (Beta-secretase 1 [1]) | also measured
CC(C)(NC(=O)c1cc(=O)cc(C(=O)N[C@@H](Cc2ccccc2)[C@H](O)C(=O)Nc2cccc(-c3nn[nH]n3)c2)o1)c1ccccc1 | 81% | 
O=C(N[C@@H](Cc1ccccc1)[C@H](O)C(=O)Nc1cccc(-c2nnn[nH]2)c1)c1cc(O)cc(C(=O)N2COC[C@@H]2c2ccccc2)n1 |  | IC50 (Beta-secretase 1 [2]): 360 nM
CCCN(CCC)C(=O)c1cccc(C(=O)N[C@@H](Cc2ccccc2)[C@@H](O)C(=O)Nc2cccc(C(=O)O)c2)n1 |  | Activity (Beta-secretase 1 [3]): inactive
O=C(N[C@@H](Cc1ccccc1)[C@H](O)C(=O)Nc1cccc(-c2nn[nH]n2)c1)c1cccc(C(=O)N2COC[C@@H]2c2ccccc2)n1 | 93% | inhibition (Beta-secretase 1 [4]): 63%
C[C@@H](NC(=O)c1cccc(C(=O)N[C@@H](Cc2ccccc2)[C@H](O)C(=O)Nc2cccc(-c3nn[nH]n3)c2)n1)c1ccccc1 | 66% | 
C[C@@H](NC(=O)c1cc(=O)cc(C(=O)N[C@@H](Cc2ccccc2)[C@H](O)C(=O)Nc2cccc(-c3nn[nH]n3)c2)o1)c1ccccc1 | 70% | 
O=C(N[C@@H](Cc1ccccc1)[C@H](O)C(=O)Nc1cccc(-c2nn[nH]n2)c1)c1cc(=O)cc(C(=O)N2COC[C@@H]2c2ccccc2)o1 | 96% | inhibition (Beta-secretase 1 [4]): 78%; IC50 (Beta-secretase 1 [2]): 50 nM
O=C(N[C@@H](Cc1ccccc1)[C@H](O)C(=O)Nc1cccc(-c2nnn[nH]2)c1)c1cccc(C(=O)N2COC[C@@H]2c2ccccc2)n1 |  | IC50 (Beta-secretase 1 [2]): 140 nM
CC(C)(NC(=O)c1cccc(C(=O)N[C@@H](Cc2ccccc2)[C@H](O)C(=O)Nc2cccc(-c3nn[nH]n3)c2)n1)c1ccccc1 | 69% | 
CC(C)(NC(=O)c1cc(OS(C)(=O)=O)cc(C(=O)N[C@@H](Cc2ccccc2)[C@H](O)C(=O)Nc2cccc(-c3nn[nH]n3)c2)n1)c1ccccc1 | 84% | 
O=C(N[C@@H](Cc1ccccc1)[C@H](O)C(=O)Nc1cccc(-c2nn[nH]n2)c1)c1cc(=O)cc(C(=O)N2COC[C@@H]2c2ccccc2)[nH]1 | 83% | inhibition (Beta-secretase 1 [4]): 36%
C[C@@H](NC(=O)c1cc(=O)cc(C(=O)N[C@@H](Cc2ccccc2)[C@H](O)C(=O)Nc2cccc(-c3nn[nH]n3)c2)[nH]1)c1ccccc1 | 51% | 
CS(=O)(=O)Oc1cc(C(=O)N[C@@H](Cc2ccccc2)[C@H](O)C(=O)Nc2cccc(-c3nnn[nH]3)c2)nc(C(=O)N2COC[C@@H]2c2ccccc2)c1 |  | IC50 (Beta-secretase 1 [2]): 96 nM
CC(C)(NC(=O)c1cc(=O)cc(C(=O)N[C@@H](Cc2ccccc2)[C@H](O)C(=O)Nc2cccc(-c3nn[nH]n3)c2)[nH]1)c1ccccc1 | 65% | 
CS(=O)(=O)Oc1cc(C(=O)N[C@@H](Cc2ccccc2)[C@H](O)C(=O)Nc2cccc(-c3nn[nH]n3)c2)nc(C(=O)N2COC[C@@H]2c2ccccc2)c1 | 96% | inhibition (Beta-secretase 1 [4]): 73%
